Test results taken from paper PMC12446476 (Nature Communications, 2025).
≈ marks a conversion by molar mass, not a printed value. Where “and” joins values, the source holds several entries; their conditions need not be identical. Equal values may be shown once. Read-outs that look alike come from different tables or passages of the source.

Assays:
[1] = test system: N. gonorrhoeae; test: MIC determination, agar dilution (CLSI); format: cell-based, Neisseria gonorrhoeae
Source text: The 2024 WHO N. gonorrhoeae reference strains were used for quality control. Only whole MIC doubling dilutions are reported. Clinical breakpoints or the epidemiological cutoff (ECOFF, to indicate azithromycin resistance) from EUCAST (v14.0, https://www.eucast.org/clinical_breakpoints) were used to classify isolates as antimicrobial susceptible or resistant. […] Two times the standard inoculum defined by CLSI was used to establish consistent growth in untreated control samples for some strains. In vitro time-kill assays were performed according to CLSI guidelines[65] using Columbia Broth (BD Difco) supplemented with 1% IsoVitaleX Enrichment (BD). Viable bacterial counts were generated by plating 10-fold serially diluted samples on GC agar plates containing 1% IsoVitaleX Enrichment (BD).

[2] = test system: Salmonella typhimurium (TA1535, TA1537, TA98 and TA100); format: cell-based
Method: (§1) Ames assays were performed using four strains of Salmonella typhimurium (TA1535, TA1537, TA98 and TA100) and a single strain of E. coli (WRP2 uvrA) in the presence and absence of S9 tissue homogenate. Dose levels (µg/plate) up to 4000 were assessed for WP2 uvrA and TA98, 500 for TA1535, 250 for TA1537 and 62.5 for TA100.

[3] = test system: intracellular N. gonorrhoeae; test: Intracellular killing in HeLa229 cells; format: cell-based, Neisseria gonorrhoeae; conditions: dilution 0, replicates 1-3, counts 1-2
Method: Intracellular killing was assessed within HeLa229 cells (European Collection of Authenticated Cell Cultures, London, UK) that were seeded at ~3 × 10^5 cells/mL and grown to 70–80% confluence in RPMI-glutamine media supplemented with 10% (v/v) heat-inactivated fetal bovine serum (FBS, Gibco, MA, USA). Cells were incubated at 37 °C with 5% CO2 for 24 h, then washed with serum-free RPMI-1640 prior to infection. N. gonorrhoeae was scraped from agar plates and resuspended in Dulbecco’s Phosphate Buffered Saline (DPBS, Sigma-Aldrich), pelleted, then resuspended in RPMI with 2% FBS. Bacterial suspensions were used to infect HeLa229 cells at a multiplicity of infection of 100:1. Plates were briefly centrifuged (500 × g for 5 min), then incubated for one hour. This incubation and all subsequent incubations were performed at 37 °C with 5% CO2. Non-adherent cells were removed by washing with serum-free RPMI, and the remaining extracellular bacteria were killed via resuspension in RPMI-glutamine supplemented with 2% FBS and 200 μg/mL gentamycin and incubation for one hour. […] Azithromycin-treated samples were included for control/comparison. […] Samples were diluted and plated onto chocolate II agar for viable bacteria quantification. Intracellular killing assays were performed at Microbiologics, Kalamazoo, MI, USA, using a method adapted from previous studies[68],[69].

[4] = test system: E. coli WP2 uvrA; test: Ames assay, E. coli strain; format: cell-based; conditions: with S9, positive control 1, 2 or 20 µg/plate
Method: as §1

[5] = screening panel N. gonorrhoeae isolate A
[6] = screening panel N. gonorrhoeae isolate B
[7] = screening panel N. gonorrhoeae isolate C
[8] = screening panel N. gonorrhoeae isolate D
[9] = screening panel N. gonorrhoeae isolate E
[10] = screening panel N. gonorrhoeae isolate F
[11] = screening panel N. gonorrhoeae isolate G
[12] = screening panel N. gonorrhoeae isolate H
[13] = screening panel N. gonorrhoeae isolate I
[14] = screening panel N. gonorrhoeae isolate J
[15] = screening panel N. gonorrhoeae isolate K
[16] = screening panel N. gonorrhoeae isolate L
[17] = screening panel N. gonorrhoeae isolate M
[18] = screening panel N. gonorrhoeae isolate N
[19] = TA98, without S9, positive control 2 µg/plate
[20] = TA1537, without S9, positive control 50 µg/plate
[21] = TA100, without S9, positive control 1 µg/plate
[22] = TA1535, without S9, positive control 1 µg/plate
[23] = TA98, with S9, positive control 1, 2 or 20 µg/plate
[24] = TA100, with S9, positive control 1, 2 or 20 µg/plate
[25] = TA1535, with S9, positive control 1, 2 or 20 µg/plate
[26] = TA1537, with S9, positive control 1, 2 or 20 µg/plate

In the case of `Cc1c(CN(C)C(=O)/C=C/c2cnc3c(c2)N[C@@H](C)[C@@H](O)C(=O)N3)oc2ccccc12` [Compound 9], the Minimum inhibitory concentration [1, 5] is reported as 2 µg/mL (≈ 4.76 µM), the Minimum inhibitory concentration [1, 6] is reported as 1 µg/mL (≈ 2.38 µM) and the Minimum inhibitory concentration [1, 7] is reported as 1 µg/mL (≈ 2.38 µM). For the same molecule, the Minimum inhibitory concentration [1, 8] was 1 µg/mL (≈ 2.38 µM), the Minimum inhibitory concentration [1, 9] was no more than 0.5 µg/mL and the Minimum inhibitory concentration [1, 10] was 2 µg/mL (≈ 4.76 µM). The Minimum inhibitory concentration [1, 11] was 2 µg/mL (≈ 4.76 µM), the Minimum inhibitory concentration [1, 12] was 2 µg/mL (≈ 4.76 µM) and the Minimum inhibitory concentration [1, 13] was 1 µg/mL (≈ 2.38 µM). It also gave a Minimum inhibitory concentration [1, 14] of 1 µg/mL (≈ 2.38 µM), a Minimum inhibitory concentration [1, 15] of 2 µg/mL (≈ 4.76 µM) and a Minimum inhibitory concentration [1, 16] of 1 µg/mL (≈ 2.38 µM). The Minimum inhibitory concentration [1, 17] was 1 µg/mL (≈ 2.38 µM) and the Minimum inhibitory concentration [1, 18] was 1 µg/mL (≈ 2.38 µM).

`O=C1CCNc2cc(/C=C/C(=O)N3CCC=C(c4ccccc4)CC3)cnc2N1` [Compound 4] gave a Minimum inhibitory concentration [1, 5] of 4 µg/mL (≈ 10.3 µM), a Minimum inhibitory concentration [1, 6] of 2 µg/mL (≈ 5.15 µM) and a Minimum inhibitory concentration [1, 7] of 2 µg/mL (≈ 5.15 µM). The Minimum inhibitory concentration [1, 8] was 2 µg/mL (≈ 5.15 µM), the Minimum inhibitory concentration [1, 9] was 1 µg/mL (≈ 2.57 µM) and the Minimum inhibitory concentration [1, 10] was 4 µg/mL (≈ 10.3 µM). The Minimum inhibitory concentration [1, 11] was 4 µg/mL (≈ 10.3 µM), the Minimum inhibitory concentration [1, 12] was 4 µg/mL (≈ 10.3 µM) and the Minimum inhibitory concentration [1, 13] was 2 µg/mL (≈ 5.15 µM). The Minimum inhibitory concentration [1, 14] was 2 µg/mL (≈ 5.15 µM), the Minimum inhibitory concentration [1, 15] was 4 µg/mL (≈ 10.3 µM) and the Minimum inhibitory concentration [1, 16] was 2 µg/mL (≈ 5.15 µM). For the same molecule, the Minimum inhibitory concentration [1, 17] was 2 µg/mL (≈ 5.15 µM) and the Minimum inhibitory concentration [1, 18] was 1 µg/mL (≈ 2.57 µM).

With `O=C1CCNc2cc(C=CC(=O)N3CC4C=C(c5ccccc5)CC4C3)cnc2N1` (stereo not shown) [Compound 3] the Minimum inhibitory concentration [1, 5] was 4 µg/mL (≈ 9.99 µM), the Minimum inhibitory concentration [1, 6] was 2 µg/mL (≈ 4.99 µM) and the Minimum inhibitory concentration [1, 7] was 1 µg/mL (≈ 2.5 µM). For the same molecule, the Minimum inhibitory concentration [1, 8] was 2 µg/mL (≈ 4.99 µM), the Minimum inhibitory concentration [1, 9] was 1 µg/mL (≈ 2.5 µM) and the Minimum inhibitory concentration [1, 10] was 4 µg/mL (≈ 9.99 µM). The Minimum inhibitory concentration [1, 11] was 4 µg/mL (≈ 9.99 µM), the Minimum inhibitory concentration [1, 12] was 4 µg/mL (≈ 9.99 µM) and the Minimum inhibitory concentration [1, 13] was 2 µg/mL (≈ 4.99 µM). It also gave a Minimum inhibitory concentration [1, 14] of 2 µg/mL (≈ 4.99 µM), a Minimum inhibitory concentration [1, 15] greater than 8 µg/mL and a Minimum inhibitory concentration [1, 16] of 2 µg/mL (≈ 4.99 µM). It also gave a Minimum inhibitory concentration [1, 17] of 2 µg/mL (≈ 4.99 µM) and a Minimum inhibitory concentration [1, 18] of 1 µg/mL (≈ 2.5 µM).

In the case of `O=[N+]([O-])c1ccc2c(c1)Cc1ccccc1-2` [2-Nitrofluorene, reference compound], the “Ames bacterial mutation assessment, Mean” value [2, 19] is reported as 173 and the Colony count [2, 19] is reported as 177 and 172 and 169.

`Cc1oc2ccccc2c1CN(C)C(=O)/C=C/c1cnc2c(c1)NCCC(=O)N2` [Compound 5] gave a Minimum inhibitory concentration [1, 5] of 1 µg/mL (≈ 2.56 µM), a Minimum inhibitory concentration [1, 6] of 1 µg/mL (≈ 2.56 µM) and a Minimum inhibitory concentration [1, 7] of 1 µg/mL (≈ 2.56 µM). For the same molecule, the Minimum inhibitory concentration [1, 8] was 1 µg/mL (≈ 2.56 µM), the Minimum inhibitory concentration [1, 9] was 0.5 µg/mL (≈ 1.28 µM) and the Minimum inhibitory concentration [1, 10] was 2 µg/mL (≈ 5.12 µM). It also gave a Minimum inhibitory concentration [1, 11] of 2 µg/mL (≈ 5.12 µM), a Minimum inhibitory concentration [1, 12] of 2 µg/mL (≈ 5.12 µM) and a Minimum inhibitory concentration [1, 13] of 0.5 µg/mL (≈ 1.28 µM). For the same molecule, the Minimum inhibitory concentration [1, 14] was 1 µg/mL (≈ 2.56 µM), the Minimum inhibitory concentration [1, 15] was 2 µg/mL (≈ 5.12 µM) and the Minimum inhibitory concentration [1, 16] was 1 µg/mL (≈ 2.56 µM). It also gave a Minimum inhibitory concentration [1, 17] of 1 µg/mL (≈ 2.56 µM) and a Minimum inhibitory concentration [1, 18] of 0.5 µg/mL (≈ 1.28 µM).

For `Nc1c2ccccc2nc2ccccc12` [9-Aminoacridine, reference compound], the “Ames bacterial mutation assessment, Mean” value [2, 20] was 142 and the Colony count [2, 20] was 128 and 153 and 146.

In the case of `[N-]=[N+]=[N-].[Na+]` [Sodium azide, reference compound], the “Ames bacterial mutation assessment, Mean” value [2, 21] is reported as 555, the Colony count [2, 21] is reported as 508 and 554 and 602 and the “Ames bacterial mutation assessment, Mean” value [2, 22] is reported as 433. For the same molecule, the Colony count [2, 22] was 428 and 408 and 464.

With `CC[C@H]1OC(=O)[C@H](C)[C@@H](O[C@H]2C[C@@](C)(OC)[C@@H](O)[C@H](C)O2)[C@H](C)[C@@H](O[C@@H]2O[C@H](C)C[C@H](N(C)C)[C@H]2O)[C@](C)(O)C[C@@H](C)CN(C)[C@H](C)[C@@H](O)[C@]1(C)O` [Azithryomycin] the “Colony forming units (CFU) of N. gonorrhoeae internalised in HeLa229 cells, colony count” value (shortened to “Colony forming units (CFU)”) ([3]; isolate ATCC 49226, 3 hr, 2X MIC) was 19 CFU (2×) and 22 CFU and 27 CFU and 29 CFU and 32 CFU, the “Colony forming units (CFU)” value ([3]; isolate ATCC 49226, 3 hr, 4X MIC) was 28 CFU and 29 CFU and 24 CFU (2×) and 32 CFU and 22 CFU and the “Colony forming units (CFU)” value ([3]; isolate ATCC 49226, 3 hr, 8X MIC) was 20 CFU and 26 CFU and 27 CFU and 18 CFU and 28 CFU and 17 CFU. The “Colony forming units (CFU)” value ([3]; isolate ATCC 49226, 6 hr, 2X MIC) was 1 CFU (3×) and 3 CFU and 2 CFU (2×), the “Colony forming units (CFU)” value ([3]; isolate ATCC 49226, 6 hr, 4X MIC) was 0 CFU (2×) and 1 CFU and 3 CFU (2×) and 5 CFU and the “Colony forming units (CFU)” value ([3]; isolate ATCC 49226, 6 hr, 8X MIC) was 1 CFU (3×) and 2 CFU (3×). For the same molecule, the “Colony forming units (CFU)” value ([3]; isolate ATCC 49226, 10 hr, 2X MIC) was 0 CFU, the “Colony forming units (CFU)” value ([3]; isolate ATCC 49226, 10 hr, 4X MIC) was 0 CFU and the “Colony forming units (CFU)” value ([3]; isolate ATCC 49226, 10 hr, 8X MIC) was 0 CFU. The “Colony forming units (CFU)” value ([3]; isolate ATCC 49226, 24 hr, 2X MIC) was 0 CFU, the “Colony forming units (CFU)” value ([3]; isolate ATCC 49226, 24 hr, 4X MIC) was 0 CFU and the “Colony forming units (CFU)” value ([3]; isolate ATCC 49226, 24 hr, 8X MIC) was 0 CFU. The “Colony forming units (CFU)” value ([3]; isolate NCTC 13820, 3 hr, 2X MIC) was 12 CFU and 15 CFU and 33 CFU and 32 CFU and 27 CFU and 29 CFU, the “Colony forming units (CFU)” value ([3]; isolate NCTC 13820, 3 hr, 4X MIC) was 21 CFU and 16 CFU and 33 CFU and 30 CFU and 20 CFU and 27 CFU and the “Colony forming units (CFU)” value ([3]; isolate NCTC 13820, 3 hr, 8X MIC) was 20 CFU and 13 CFU and 26 CFU and 30 CFU (2×) and 21 CFU. For the same molecule, the “Colony forming units (CFU)” value ([3]; isolate NCTC 13820, 6 hr, 2X MIC) was 0 CFU (2×) and 1 CFU (2×) and 3 CFU (2×) and the “Colony forming units (CFU)” value ([3]; isolate NCTC 13820, 6 hr, 4X MIC) was 0 CFU (2×) and 1 CFU and 3 CFU.

For `Nc1ccc2cc3ccccc3cc2c1` [2-Aminoanthracene, reference compound], the “Ames bacterial mutation assessment, Mean” value [4] was 187, the Colony count [4] was 181 and 184 and 195 and the “Ames bacterial mutation assessment, Mean” value [2, 23] was 515. For the same molecule, the Colony count [2, 23] was 486 and 532 and 526, the “Ames bacterial mutation assessment, Mean” value [2, 24] was 1256 and the Colony count [2, 24] was 1316 and 1188 and 1256. For the same molecule, the “Ames bacterial mutation assessment, Mean” value [2, 25] was 104, the Colony count [2, 25] was 93 and 104 and 116 and the “Ames bacterial mutation assessment, Mean” value [2, 26] was 95. For the same molecule, the Colony count [2, 26] was 90 and 94 and 102.
